Source: patent publication US20100209426A1, “INHIBITORS OF PROGASTRIN-INDUCED REPRESSION OF ICAT FOR TREATING AND/OR PREVENTING COLORECTAL CANCER, ADENOMATOUS POLYPOSIS OR METASTASIS DISPLAYING PROGASTRIN-SECRETING CELLS AND CELLS IN WHICH THE BETA-CATENIN/TCF-MEDIATED TRANSCRIPTIONAL PATHWAY IS CONSTITUTIVELY ACTIVE” (INSERM (INSTITUT NATIONAL DE LA SANTE ET DE LA REC HERCHE …, priority 2006, published 2010)

Assays:
[1] = tested on: APCΔ14 mice; assay: siRNA treatment of APCΔ14 mice (spontaneous intestinal tumorigenesis); assay type: in vivo, mouse
Experimental: (§1) APCΔ14 mice were housed in conventional conditions, and randomized in two groups. The first group (n=9), was treated once daily by intraperitoneal administration of 250 μg/kg siRNA against the murine GAST mRNA. Control mice (n=9) were treated with a similar dose of siRNA against Luciferase. (siRNA sequence on FIG. S7 online). […] Adenoma scoring in the intestine and colon was described in (Colnot et al., 2004). Samples of healthy intestinal mucosa, as well as intestinal and colon adenomas, were fixed in 4% PFA and paraffin-embedded, or frozen in liquid nitrogen, for Western blotting, IHC or RNA extraction. Plasma was prepared and assayed for IL-6 and TNFα using the FACSarray system (Becton Dickinson).

[2] = tested on: Colo-26 murine CRC cells and Young adult mouse colon (YAMC) cells; assay: GAST mRNA after siRNA transfection of murine cells (RT-QPCR); assay type: cell-based; conditions: mouse cells (FIG. S1)
[3] = Plasma IL-6 and TNFα in siRNA-treated APCΔ14 mice; assay type: in vivo, mouse; conditions: two-week treatment, GAST siRNA versus Luc siRNA
Experimental: as §1

siRNA directed against the murine GAST gene: siRNA against the murine GAST mRNA; siRNAs mPG sense 5′-GAAGAGGCCUACGGAUGGTT-3′ (SEQ ID No 29), antisense SEQ ID No 30 (antisense CCAUCCGUAGGCCUCUUCTT; chemistry not given here)
ICAT expression in adenomas ([1]; APCΔ14 mice treated with siRNA): significantly increased
expression of Tcf-4 target genes in adenomas ([1]; APCΔ14 mice treated with siRNA): strong repression
number of cells staining for activated caspase 3 in adenomas ([1]; APCΔ14 mice treated with siRNA, immunohistochemistry): strongly elevated
Muc-2 and Alcian-blue positive cells in remaining small intestinal and colonic adenomas ([1]; APCΔ14 mice treated with siRNA, immunohistochemistry, compared to controls): greatly increased numbers
decrease in the total number of intestinal tumors ([1]; APCΔ14 mice, 250 μg/kg siRNA intraperitoneal once daily for two weeks, compared to Luciferase siRNA control animals): 20%
reduction in tumor size in the colon ([1]; APCΔ14 mice, daily siRNA for two weeks, colon, Fischer's exact test p=0.228): not reaching significance
GAST gene and progastrin expression in intestinal adenomas ([1]; APCΔ14 mice, daily siRNA for two weeks, compared to Luciferase-specific siRNA): reduction
tumor size in the intestine ([1]; APCΔ14 mice, daily siRNA for two weeks, compared to controls, Chi-square p<0.0001, n=9 per group): significant reduction
reduction in tumor size in the ileum ([1]; APCΔ14 mice, daily siRNA for two weeks, ileum): particularly marked
down-regulation of GAST in mouse cells [2]: effective
levels of plasma IL-6 and TNFα (proinflammatory response) [3]: No significant differences
